Results taken from article PMC11623267, “Inhibitors of malaria parasite cyclic nucleotide phosphodiesterases block asexual blood-stage development and mosquito transmission” (Science Advances, 2024).
Read-outs that look alike come from different tables or passages of the source.

Tests used:
HepG2 cells = test: HepG2 cytotoxicity; format: cell-based
Source text: Table 1. Key activity data for the three main chemical subseries against ABS parasites, parasite fractions, and HepG2 cells. ND, not determined; ×/÷ is the geometric mean with geometric SD. | column: HepG2 EC50 (nM) (selectivity index)

[1] = tested on: P. falciparum (clone 3D7); test: Parasite reduction ratio (PRR) assay; format: cell-based, Plasmodium falciparum; settings: for Lag phase / Log PRR / PCT99.9% (hours taken to kill 99.9% of the parasites): 10× EC50, 3D7; for Slope: 10× EC50, 3D7 killing profile; for Killing profile: 10× EC50, faster than pyrimethamine, slower than chloroquine
Description: The in vitro killing profile of compounds was determined by monitoring the ability of parasites to recover following treatment with a compound of interest using a previously reported approach ([50]), which allowed calculation of the PRR ([51]). […] To quantify the number of viable parasites following treatment, four independent sets of threefold serial dilutions were performed on each sample, which were assayed for the presence or absence of parasites after 28 days using the LDH assay, and the number of viable parasites was determined by the number of wells showing growth. PRR and PCT99.9% were calculated as previously reported ([50]).

P. falciparum Dd2-B2 = test: 72-hour flow cytometry EC50 assay, Dd2-B2 parental line; format: cell-based, Plasmodium falciparum; settings: read-out: EC50 Dd2-B2 parental line
Description: (§1) Stocks of SAL-0010003 (5-benzyl), SAL-0010355 (5-aryl), and SAL-0010419 (2-alkyl) were made at 10 and 1 mM in DMSO. Aliquots in use were stored at −20°C, and long-term storage was at −80°C. All in vitro studies were done such that the final DMSO concentration was <0.5%. P. falciparum ABS parasites were cultured at 3% hematocrit in human O+ RBCs in RPMI 1640 medium, supplemented with 25 mM Hepes, 50 mg L-hypoxanthine, 2 mM L-glutamine, 0.225% sodium bicarbonate, 0.5% (w/v) AlbuMAX II (Invitrogen) and gentamycin (10 μg/ml), in modular incubator chambers (Billups-Rothenberg) at 5% O2, 5% CO2, and 90% N2 at 37°C. Dd2-B2 (obtained from T. Wellems, National Institute of Allergy and Infectious Diseases, National Institutes of Health) is a genetically homogenous line that was cloned from Dd2 by limiting dilution. To define the EC50 and EC90 values of ABS parasites, Dd2-B2 ring-stage cultures at 0.2% parasitemia and 1% hematocrit were exposed for 72 hours to a range of 10 drug concentrations that were twofold serially diluted in duplicates along with drug-free controls. Parasite survival was assessed by flow cytometry on an iQue flow cytometer (Sartorius) using SYBR Green and MitoTracker Deep Red FM (Life Technologies) as nuclear stain and vital dyes, respectively. After determination of the EC50 and EC90 values for the three compounds with the P. falciparum Dd2-B2 clone, one single-step selection was set up using 2 × 10^5 parasites in each well of a 96-well plate at a starting concentration of 3× EC90. Parasites were cleared from the culture rapidly, and cultures were screened three times weekly by flow cytometry and counted as positive for recrudescence when the overall parasitemia reached 0.3% and the parasites were visible on a blood smear. DNA was extracted from recrudescent lines using a QIAGEN QIAamp Blood Mini Kit, and libraries were prepared with the Illumina DNA Prep kit for whole-genome sequencing on the Illumina MiSeq using a V3 2 × 300–base pair flow cell.

[2] = tested on: P. falciparum Dd2-B2 lines selected under drug pressure; test: 72-hour flow cytometry EC50 assay, lines selected under drug pressure; format: cell-based, Plasmodium falciparum; settings: for Mean fold change in EC50: selected lines vs Dd2-B2 parental line, ±SD; for EC50 shift, line selected with the same NPD compound, Well 1 / EC50 shift, line selected with the same NPD compound, Well 2 / EC50 shift, line selected with the same NPD compound, Well 3 / EC50 shift, line selected with the same NPD compound, Well 4: vs Dd2-B2
Description: Three examples of an additional compound series developed independently [NPD-2958, NPD-3518 ([31]), and NPD-3738; fig.
as §1

[3] = tested on: P. falciparum stage V gametocytes (male gamete formation); test: Exflagellation (male gamete formation) inhibition assay; format: cell-based, Plasmodium falciparum; settings: 2 μM, 48 hours
Description: The exflagellation inhibition assay was performed by capturing movement of exflagellation centers over time by video microscopy [adapted from a reported protocol ([52])]. For this carry-over format, mature stage V gametocytes were treated with 2 μM of each compound for 48 hours before induction of exflagellation in the presence of compound. To evaluate compound dose response, gametocytes were treated similarly at a set of concentrations representing a fourfold serial dilution. Mature gametocyte cultures (>95% stage V; 500 μl) were centrifuged at 3500 rpm for 30 s, and the pellet was resuspended in 30 μl of ookinete medium [RPMI 1640 medium containing L-glutamine (Sigma-Aldrich, R6504), gentamycin (0.024 mg/ml; HyClone, SV30080.01), 202 μM hypoxanthine (Sigma-Aldrich, H9636), 25 mM Hepes (Sigma-Aldrich, H4034), 0.2% glucose (Sigma-Aldrich, G6152), and 0.5% (w/v) AlbuMAX II (Invitrogen, Paisley, UK), supplemented with 100 μM XA and 20% human serum]. The activated culture (10 μl) was introduced into a Neubauer chamber and placed on the microscope platform to settle homogenously. Time was noted as time zero (T0), and the chamber was incubated at room temperature. Movement was recorded by video microscopy using a Carl Zeiss NT 6V/10W Stab microscope, fitted with a MicroCapture camera at 10× magnification, and then quantified by a semiautomated method, a modification of the method described previously ([53]). A series of 15 videos of 8 to 10 s each were captured at random locations between 15 and 22.5 min after incubation. Each video was analyzed using Icy bioimage analysis software to quantify the number of exflagellating centers. Compound IC50 values were determined with nonlinear curve fitting (GraphPad Prism 6), normalized to maximum and minimum inhibition.

[4] = tested on: P. falciparum stage V gametocytes (female gamete formation); test: Female gamete formation inhibition assay; format: cell-based, Plasmodium falciparum; settings: 2 μM, 48 hours
Description: Mature gametocytes (>95% stage V) were treated with compounds (2 μM) for 48 hours before stimulating female gamete formation. To evaluate compound dose response, gametocytes were treated similarly at set concentrations representing a fourfold serial dilution. Female gamete activation was induced by both a temperature drop and the addition of 100 μM XA. Monoclonal anti-Pfs25 antibody (BEI Resources, catalog number MRA-28; 1:1000 dilution) conjugated to fluorescein isothiocyanate was used to detect female gametes. Image acquisition was performed using a Zeiss Axio Lab.A1 epifluorescence microscope with a 100/1.4 numerical aperture oil immersion objective and a Zeiss Axiocam 202 mono digital camera. Using a 100× objective, 30 images were taken per sample and analyzed manually. The number, size, roundness, and intensity of fluorescence of activated female gametocytes were evaluated. Compound IC50 values were determined with nonlinear curve fitting (GraphPad Prism 6), normalized to maximum and minimum inhibition.

[5] = tested on: P. falciparum stage IV/V gametocytes; test: LDH-based gametocyte viability assay; format: cell-based, Plasmodium falciparum; settings: stage IV to V gametocytes
Description: The pLDH assay was performed on late (>95% stage IV/V) gametocytes. Compound dilutions were placed in triplicate in 96-well plates in a final volume of 100 μl per well. DHA and MMV048 were used as positive drug controls. The gametocyte cultures (100 μl per well) were added to the 96-well plates to achieve a final gametocytemia and hematocrit of 2 and 1%, respectively, in a total incubation volume of 200 μl. Plates were incubated at 37°C for 72 hours, followed by the replacement of spent medium with drug-free culture medium (75% medium change) ([54], [55]). Plates were then incubated for a further 72 hours before assessing viability by measuring pLDH activity. Gametocyte viability was determined spectrophotometrically by measuring the activity of pLDH, according to a modified version of a published protocol ([56]). Briefly, 100 μl of Malstat reagent [0.21% (v/v) Triton X-100, 222 mM L-(+)-lactic acid, 54.5 mM tris, 0.166 mM APAD (Sigma-Aldrich, A5251), adjusted to pH 9 with 1 M NaOH] was transferred into a clean 96-well plate. A fixed volume of 20 μl of parasite suspension per well was added to the Malstat plate, followed by the addition of 25 μl of PES/NBT (0.239 mM phenazine ethosulfate and 1.96 mM nitro blue tetrazolium chloride). Absorbance was measured with a Multiskan Ascent 354 multiplate scanner (Thermo LabSystems, Finland) at 620 nm.

[6] = tested on: P. falciparum clinical isolates from Porto Velho, Brazil; test: Ex vivo schizont maturation assay, Brazilian clinical isolates; format: cell-based, Plasmodium falciparum; settings: Plasmodium falciparum
Description: Only monoinfected patients with P. falciparum with parasitemia between 2000 and 80,000 parasites/μl and with at least 70% of ring-stage parasites were recruited. Patients who had used an antimalarial in the previous month and/or presented with symptoms of severe malaria were excluded from the study. The study cohort comprised 24 patients living in this highly endemic area. A peripheral venous blood sample (5 ml) was collected from each individual by venipuncture in heparin-containing tubes and immediately used in the ex vivo drug susceptibility assay using preprepared plates containing diluted antimalarial compounds. […] Last, 20 μl of each dilution was transferred into the ex vivo assay plate and diluted 10-fold into the final assay medium containing parasites. For the infected blood preparation, 5 ml of whole blood was centrifuged at 800g for 10 min, and the plasma and buffy coat were removed. […] Control assays on a 3D7 laboratory isolate were performed with medium supplemented with human serum (20%). The iRBC (180 μl per well) were distributed in the predosed drug plate. […] Control wells containing drug-free iRBCs were cultured with complete medium. The parasite-drug incubation was terminated when 40% of the ring stages reached the schizont stage (at least three distinct nuclei per parasite) in the drug-free control wells. Thick blood films were then made from each well, dried, stained with 5% Giemsa solution for 30 min, and examined microscopically. The number of schizonts per 200 asexual-stage parasites was determined for each drug concentration and then normalized by comparing with the schizont number in the drug-free control wells [considered as 100% ([64])]. The half-maximal drug inhibitory response (EC50) was estimated by curve fitting using software from the OriginLab Corporation, Northampton, MA, USA and comparing with parasite growth in the drug-free controls.

[7] = read-out: EC50, line selected with the same NPD compound, Well 1
[8] = read-out: EC50, line selected with the same NPD compound, Well 2
[9] = read-out: EC50, line selected with the same NPD compound, Well 3
[10] = read-out: EC50, line selected with the same NPD compound, Well 4

CNC(=O)c1cnc(OCC(C)C)c(-c2nc3c(C(C)C)n[nH]c3c(=O)[nH]2)c1 [SAL-0010301]
EC50 (HepG2 cells): > 25000 nM | Lag phase [1]: 0 h | Log PRR [1]: 2.55 | PCT99.9% (hours taken to kill 99.9% of the parasites) [1]: 55.1 h | Slope [1]: −0.0532 ± 0.0042 | Killing profile [1]: fast/moderate killing profile

CC(C)c1n[nH]c2c(=O)[nH]c(Cc3ccccc3Cl)nc12 [NPD-2958]
EC50 (P. falciparum Dd2-B2): 320 nM | EC50 [2, 7]: 2570 nM | EC50 [2, 8]: 3370 nM | EC50 [2, 9]: 2470 nM | EC50 [2, 10]: 2440 nM | Mean fold change in EC50 [2]: 8.5 ± 1.4 fold | EC50 shift, line selected with the same NPD compound, Well 1 [2]: 8.1 fold | EC50 shift, line selected with the same NPD compound, Well 2 [2]: 10.5 fold | EC50 shift, line selected with the same NPD compound, Well 3 [2]: 7.7 fold | EC50 shift, line selected with the same NPD compound, Well 4 [2]: 7.6 fold

CCc1c2nc(-c3cc(C(=O)NC)cnc3OCC(C)C)[nH]c(=O)c2nn1CCOC [SAL-0010031]
EC50 (HepG2 cells): > 25000 nM | Lag phase [1]: 0 h | Log PRR [1]: 2.78 | PCT99.9% (hours taken to kill 99.9% of the parasites) [1]: 51.2 h | Slope [1]: −0.0579 ± 0.0058 | Killing profile [1]: fast/moderate killing profile

CC(C)COc1ccc(S(=O)(=O)N(C)C)cc1-c1nc2c(C(C)C)n[nH]c2c(=O)[nH]1 [SAL-0010243]
% inhibition of exflagellation at 2 μM [3]: 95.4 ± 12.3% | % inhibition of female gamete formation at 2 μM [4]: 80.5 ± 0.9% | % inhibition gametocyte viability at 15 μM [5]: 100 ± 0%

CC(C)COc1ccc(S(=O)(=O)N(C)C)cc1-c1nc2c(C(C)(C)C)n[nH]c2c(=O)[nH]1 [SAL-0010284]
% inhibition of exflagellation at 2 μM [3]: 60.5 ± 18.0% | % inhibition of female gamete formation at 2 μM [4]: 58.6 ± 2.1% | % inhibition gametocyte viability at 15 μM [5]: 100 ± 0%

C[C@H]1[C@H](OC(=O)CCC(=O)O)O[C@@H]2O[C@@]3(C)CC[C@H]4[C@H](C)CC[C@@H]1[C@@]24OO3 [Artesunate, reference compound]
EC50 ([6]; read-out: EC50 range, clinical isolates): 0.1 to 9 nM | EC50 ([6]; read-out: Median EC50, clinical isolates): 0.6 nM | Lag phase [1]: 0 h | Log PRR [1]: >8 | PCT99.9% (hours taken to kill 99.9% of the parasites) [1]: <24 h

CC(C)COc1ccc(S(=O)(=O)N(C)C)cc1-c1nc2c(C3CCC3)n[nH]c2c(=O)[nH]1 [SAL-0010283]
% inhibition of exflagellation at 2 μM [3]: 72.1 ± 26.0% | % inhibition of female gamete formation at 2 μM [4]: 44.8 ± 2.5% | % inhibition gametocyte viability at 15 μM [5]: 100 ± 0%

CCCCOc1ncc(Br)cc1-c1nc2c(C(C)C)n[nH]c2c(=O)[nH]1 [SAL-0010203]
% inhibition of exflagellation at 2 μM [3]: 76.7 ± 13.6% | % inhibition of female gamete formation at 2 μM [4]: 44.8 ± 1.7% | % inhibition gametocyte viability at 15 μM [5]: 0%

O=C1C(O)=C([C@H]2CC[C@H](c3ccc(Cl)cc3)CC2)C(=O)c2ccccc21 [Atovaquone, reference compound]
Lag phase [1]: 48 h | Log PRR [1]: 2.26 | PCT99.9% (hours taken to kill 99.9% of the parasites) [1]: 73.0 h | Slope [1]: −0.0470 ± 0.0042

CC(C)c1n[nH]c2c(=O)[nH]c(C3CCCCC3)nc12 [NPD-3518]
EC50 (P. falciparum Dd2-B2): 203 nM | EC50 [2, 7]: 2630 nM | EC50 [2, 8]: 2290 nM | EC50 [2, 9]: 2530 nM | EC50 [2, 10]: 2510 nM | Mean fold change in EC50 [2]: 12.2 ± 0.7 fold | EC50 shift, line selected with the same NPD compound, Well 1 [2]: 12.9 fold | EC50 shift, line selected with the same NPD compound, Well 2 [2]: 11.2 fold | EC50 shift, line selected with the same NPD compound, Well 3 [2]: 12.4 fold | EC50 shift, line selected with the same NPD compound, Well 4 [2]: 12.4 fold

CC(C)c1n[nH]c2c(=O)[nH]c(C3CCOc4ccc(F)cc43)nc12 (centres unmarked) [SAL-0010007]
% inhibition of exflagellation at 2 μM [3]: 100 ± 0% | % inhibition of female gamete formation at 2 μM [4]: 50.6 ± 1.9% | % inhibition gametocyte viability at 15 μM [5]: 100 ± 0%
